Species on record: Homo sapiens
Experiment: Selectivity factor, ratio of IC50 for human membrane bound C-terminal His4-tagged CYP21A2delta19H mutant to IC50 for human membrane bound C-terminal His4-tagged CYP17A1delta19H mutant

Q: Which Ratio IC50 does the source give for C[C@]12CC[C@H](O)C[C@@H]1/C(=N/O)C[C@@H]1[C@@H]2CC[C@]2(C)C(c3cccnc3)=CC[C@@H]12 here?
A: The Ratio IC50 was 68.9.

Reference: ChEMBL document CHEMBL4256943, “Inhibitors of cyp17a1” (2016)
